Here are results for one compound from patent US20060025449A1, “Use of N-substituted imino sugars for appetite suppression” (priority 2004, published 2006).

Type in all cases: in vivo, mouse
For one data set, the system named is ob/ob mice. Kind of data set: Long-term dietary dosing of obese mice, growth curves. Conditions: 2400 mg/kg/d in diet. How it is done: Control C57B1/6 and C57BL/6O1aHsd-Lep ob mice were obtained from Harlan, UK at five weeks of age. The mice were housed under standard non-sterile conditions and fed a diet of mouse chow pelleted or expanded ground RM1 diet (SDS Ltd, Witham, Essex) with water available ad libitum. For dietary treatment of the mice with NB-DNJ or NB-DGJ, the diet and compound were admixed thoroughly as dry solids, stored at room temperature and used within 7 days. Unless indicated otherwise, mice were treated with a dose of 2400 mg/kg body weight per day, assuming an intake of around 5 g diet/day. Mice were maintained on diet with or without compound for up to six months of age and were weighed at regular intervals during the course of the experiment (see figure legends for group sizes and further experimental details). To study the effect of compound on obese mice, three groups (n=5) of ob/ob mice were monitored from five weeks of age. One group acted as control and were fed ground RM1 diet. […] All mice were then monitored for up to six months of age. Leptin deficient ob/ob mice are widely used as an animal model of obesity and weigh more than twice as much as a normal mouse, even when fed the same diet. The mice have as much as a five-fold increase in fat content, are hyperphagic, hypothermic, have decreased energy expenditure and are unusually efficient at converting metabolic fuels into fat. Friedman & Halas, Nature 395, 763-70 (1998). These mice were used to investigate the effect of NB-DNJ. […] As NB-DNJ was so effective at reducing white adipose tissue in normal mice, a study was performed to discover if a similar effect would occur in obese mice. […] The control obese mice grew from just over 20 g at five weeks old to about 60 g at six months of age whereas the lean controls had reached about 27 g at the same age. The group of obese mice started on NB-DNJ treatment at 7 weeks old grew at a very much reduced rate and weighed 35 g after six months (40% less than their control littermates). […]

For a further data set, the system named is C57B1/6 mice. How it is done: Growth rates of control and NB-DNJ-treated mice were analysed statistically by univariate analysis of variance (ANOVA) using SPSS software to compare slopes of growth from 54 to 174 days of age.
The effect of NB-DNJ on lean body mass growth was also assessed by measuring tibia lengths in a group of 20 control mice at one year old, 5 mice at 2 years old and two mice 19.5 months old after 18 months on 2400 mg/kg/day. Tibias were dissected from both hind-limbs then boiled in distilled water for 20 min to clean the bone of remaining connective tissue and muscle. Tibia length was then measured using calipers.
It can also be seen (FIG. 4) that the control mice lost weight over the first two weeks of treatment and then started to grow again, and continued to gain weight for the remainder of the study. […] Growth in both groups of mice as measured by the gradient of the line is similar and the data were analysed by univariate analysis of variance (ANOVA) to compare the slopes of growth statistically.
To establish further, whether NB-DNJ has an effect on lean growth of mice tibia lengths were measured in a large (n=20) group of control mice at one year of age, a smaller group (n=5) at two years of age and a comparison was made with two mice treated with NB-DNJ for 18 months.

Data set [1] deals with lean control and obese mice. Kind of data set: Dietary intake in lean and obese mice (compound in diet or intraperitoneal injection). How it is done: Dietary intake of mice on powdered diets was measured on a daily basis, by pre-weighing diet put into the feeding hoppers then weighing remaining diet daily. Diet which the mice had spilt on the floor of the cage, was carefully recovered by sieving and incorporated into the measurements. In order to facilitate measurement of dietary intake, to exclude possible effects of the bitter taste of imino sugar in the diet and also inhibitory effects on disaccharidases in the gastrointestinal tract, groups of control and obese mice five weeks old were given daily intraperitoneal injections of NB-DNJ at a dose equivalent to 2400 mg/kg/day. A further group of obese mice was given daily intraperitoneal injections for two weeks from 10 weeks old. Control mice for each group were injected with an equal volume of isotonic saline vehicle. After assessment of dietary intake over five weeks in controls and three weeks in the obese mice, a restricted diet of 3.2 g/day for controls and 4.0 g/day for the obese mice was provided to compare with the effect of intraperitoneal injection. This equated to a 30% reduction in dietary provision for both groups of mice. […] Platt et al., J Biol Chem 272, 19365-72. This hypothesis was tested by measuring dietary intake in both lean and obese mice fed on both powdered chow with or without imino sugar and with pelleted diet. To exclude any effects of the bitter taste of imino sugars and also as a means to bypass any disaccharidase inhibition in the gut, lean control and obese mice were given daily intraperitoneal injections of NB-DNJ for five and three weeks respectively. Also, a group of obese mice had NB-DNJ mini-pumps implanted and, after four weeks, when the pumps were empty, were then given intraperitoneal injections daily. This delivery route has the advantage that it allows easy assessment of dietary intake, as the mice can eat pelleted diet.

Another data set has as its system control lean mice. Kind of data set: ICV mini-pump implants, long-term intracerebro-ventricular delivery. How it is done:
FIG. 11. Control lean mice (n=5 in each group) had icv minipumps (50 mM imino sugar) implanted. Body weight was the monitored at regular intervals over three weeks. See example 7 for further experimental details. The effect of long-term intracerebro-ventricular delivery of imino sugars was determined by the implantation of Alzet mini-osmotic pumps (model 2004, DURECT Corporation, CA, USA) together with the brain infusion kit II which features a high stability low profile cannula. The mini-pumps were loaded with 0.24 ml imino sugar or saline vehicle. The indwelling 28 gauge stainless steel cannula was cut to a length of 2.25 mm. Mice were anaesthetised as for the ICV injections and underwent similar surgical procedures throughout. After drilling a small hole in the cranium at the midline, 2 mm posterior to Bregma, the mini-pump was positioned subcutaneously in the animal's flank and the cannula was implanted. This position and depth ensured delivery to the third cerebral ventricle. The implant was secured to the cranium using VetBond acrylic suture fluid, which was also used to close the surgical wound. The whole procedure lasted less than 9 minutes and mice were fully conscious and recovered within three minutes. For concentration of imino sugar in mini-pumps see figure legends.

The mark [2] stands for this setting: ICV mini-pump 500 mM, first 24 hours.

Take `CCCCN1C[C@H](O)[C@@H](O)[C@H](O)[C@H]1CO` [NB-DNJ, N-butyldeoxynojirimycin]: the “body weight of obese mice after six months” value in the data set with ob/ob mice (started at 7 weeks old) came out at 35 g. The “weight less than control littermates” value in the data set with ob/ob mice (started at 7 weeks old, after six months) turned out to be 40%. For the same compound, the “weight at which obese mice stabilised after losing weight” value in the data set on ob/ob mice (started at 12 weeks old, over three months) is on record as “less than 40 g”. Also, the “weighing less than control counterparts after original weight loss” value in the data set on C57B1/6 mice (2400 mg/kg/d in diet) was found to be 4 g. In the data set on C57B1/6 mice (admixed with diet, lean mice), the “lean mass” value is listed as “did not have any reduction in lean mass”. In the data set with C57B1/6 mice (two mice treated for 18 months, 2400 mg/kg/day), the “tibia lengths” value is “within the normal range”. Moreover, the “reduction in food intake” value in data set [1] (all groups of mice, pelleted or powdered diet, 2400 mg/kg/day equivalent) is listed as “around 30%”. For the same compound, the “eat less than age and sex-matched controls” value in data set [1] (intraperitoneally injected mice, 2400 mg/kg/day equivalent) is listed as 30%. In addition, the “ate less than untreated controls” value in data set [1] (lean and obese groups) is recorded as “up to one third less”. For the same compound, in the data set with control lean mice (ICV mini-pump 50 mM, NB-DGJ as control), the “reduction in food intake compared to the controls” value turned out to be 6%. Also, the “reduction of body weight” value in the data set with control lean mice (ICV mini-pump 50 mM, after 3 weeks) amounted to 5%. For the same compound, in the data set with control lean mice (setting [2]), the “effect on dietary intake” value is given as “ate even less” and the “effect on weight change” value was “lost a little more weight”.
